According to PubChem BioAssay (NCI):
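Five compound concentrations were applied to cells in 96-well plates for 48 hours; endpoints were derived by simple linear interpolation of the resulting dose-response curve. TGI marks complete inhibition of growth.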

How the values were obtained:
Test in all cases: DTP human tumour cell line panel, 48 h
ACHN renal = tested on: ACHN renal
EKVX NSCLC = tested on: EKVX NSCLC
RXF 393 renal = tested on: RXF 393 renal
HOP-62 NSCLC = tested on: HOP-62 NSCLC
SNB-75 CNS = tested on: SNB-75 CNS
LOX IMVI melanoma = tested on: LOX IMVI melanoma
DU-145 prostate = tested on: DU-145 prostate
SK-MEL-28 melanoma = tested on: SK-MEL-28 melanoma
BT-549 breast = tested on: BT-549 breast
OVCAR-3 ovarian = tested on: OVCAR-3 ovarian

SMILES: CC1(C)C=C(S(=O)(=O)c2ccccc2)Oc2ccccc2O1
- TGI (ACHN renal): > 100 µM
- TGI (EKVX NSCLC): 73.4 µM
- TGI (RXF 393 renal): > 100 µM
- TGI (HOP-62 NSCLC): > 100 µM
- TGI (SNB-75 CNS): 82.3 µM
- TGI (LOX IMVI melanoma): 57.6 µM
- TGI (DU-145 prostate): > 100 µM
- TGI (SK-MEL-28 melanoma): > 100 µM
- TGI (BT-549 breast): > 100 µM
- TGI (OVCAR-3 ovarian): > 100 µM

SMILES: FC(F)(F)c1ccc2nc3n(c2c1)C(c1c(Cl)cccc1Cl)SC3 (stereo not given)
- TGI (ACHN renal): 32.1 µM
- TGI (EKVX NSCLC): 28.6 µM
- TGI (RXF 393 renal): 30.9 µM
- TGI (HOP-62 NSCLC): 29.8 µM
- TGI (SNB-75 CNS): 25.8 µM
- TGI (LOX IMVI melanoma): > 100 µM
- TGI (DU-145 prostate): 32.3 µM
- TGI (SK-MEL-28 melanoma): 29.5 µM
- TGI (BT-549 breast): 50.3 µM
- TGI (OVCAR-3 ovarian): 29.4 µM

SMILES: Brc1ccc2c(-c3csc(-c4c[nH]c5ccc(Br)cc45)n3)c[nH]c2c1
- TGI (ACHN renal): 11.1 µM
- TGI (EKVX NSCLC): 7.15 µM
- TGI (RXF 393 renal): 9.55 µM
- TGI (HOP-62 NSCLC): 27.1 µM
- TGI (SNB-75 CNS): 24.9 µM
- TGI (LOX IMVI melanoma): 4.16 µM
- TGI (DU-145 prostate): 15.5 µM
- TGI (SK-MEL-28 melanoma): 25.8 µM
- TGI (BT-549 breast): 27.7 µM
- TGI (OVCAR-3 ovarian): 23.2 µM

SMILES: CCOc1cc(-c2nc3ccccn3c2/N=C/c2cc(Br)ccc2O)ccc1O
- TGI (ACHN renal): > 100 µM
- TGI (EKVX NSCLC): 76.6 µM
- TGI (RXF 393 renal): 32 µM
- TGI (HOP-62 NSCLC): 44.8 µM
- TGI (SNB-75 CNS): 31.3 µM
- TGI (LOX IMVI melanoma): > 100 µM
- TGI (DU-145 prostate): 70.3 µM
- TGI (SK-MEL-28 melanoma): > 100 µM
- TGI (BT-549 breast): > 100 µM
- TGI (OVCAR-3 ovarian): 34 µM

SMILES: CCOn1c(C2(CC3CCN(C(=O)c4ccccc4)CC3)OCCO2)cc2ccccc21
- TGI (ACHN renal): 27.9 µM
- TGI (EKVX NSCLC): 40.1 µM
- TGI (RXF 393 renal): 31.2 µM
- TGI (HOP-62 NSCLC): 28.3 µM
- TGI (SNB-75 CNS): 34.6 µM
- TGI (LOX IMVI melanoma): 30.4 µM
- TGI (DU-145 prostate): 31.9 µM
- TGI (SK-MEL-28 melanoma): 27.7 µM
- TGI (BT-549 breast): 34.5 µM
- TGI (OVCAR-3 ovarian): 30 µM

SMILES: Cc1nc(C)c(Cc2ccccc2)o1
- TGI (ACHN renal): > 100 µM
- TGI (EKVX NSCLC): > 100 µM
- TGI (RXF 393 renal): > 100 µM
- TGI (HOP-62 NSCLC): > 100 µM
- TGI (SNB-75 CNS): > 100 µM
- TGI (LOX IMVI melanoma): > 100 µM
- TGI (DU-145 prostate): > 100 µM
- TGI (SK-MEL-28 melanoma): > 100 µM
- TGI (BT-549 breast): > 100 µM
- TGI (OVCAR-3 ovarian): > 100 µM

SMILES: COC(=O)c1ccc(C=Nc2ccc(S(N)(=O)=O)cc2)cc1
- TGI (ACHN renal): > 100 µM
- TGI (EKVX NSCLC): > 100 µM
- TGI (RXF 393 renal): > 100 µM
- TGI (HOP-62 NSCLC): > 100 µM
- TGI (SNB-75 CNS): > 100 µM
- TGI (LOX IMVI melanoma): > 100 µM
- TGI (DU-145 prostate): > 100 µM
- TGI (SK-MEL-28 melanoma): > 100 µM
- TGI (BT-549 breast): > 100 µM
- TGI (OVCAR-3 ovarian): > 100 µM

SMILES: Cn1c2ccccc2n2c(=O)c3cc([N+](=O)[O-])ccc3c(C#N)c12
- TGI (ACHN renal): > 100 µM
- TGI (EKVX NSCLC): > 100 µM
- TGI (RXF 393 renal): > 100 µM
- TGI (HOP-62 NSCLC): > 100 µM
- TGI (SNB-75 CNS): > 100 µM
- TGI (LOX IMVI melanoma): > 100 µM
- TGI (DU-145 prostate): > 100 µM
- TGI (SK-MEL-28 melanoma): > 100 µM
- TGI (BT-549 breast): > 100 µM
- TGI (OVCAR-3 ovarian): > 100 µM

SMILES: Nc1c(C(=O)c2ccc(Cl)cc2)[nH]c(NCc2ccccc2)c1C(=S)Nc1ccccc1
- TGI (ACHN renal): 4.71 µM
- TGI (EKVX NSCLC): 20.1 µM
- TGI (RXF 393 renal): 4.16 µM
- TGI (HOP-62 NSCLC): 12.9 µM
- TGI (SNB-75 CNS): 3.33 µM
- TGI (LOX IMVI melanoma): 3.19 µM
- TGI (DU-145 prostate): 13.1 µM
- TGI (SK-MEL-28 melanoma): 3.22 µM
- TGI (BT-549 breast): 7.06 µM
- TGI (OVCAR-3 ovarian): 20.2 µM
